Measurements: ChEMBL document CHEMBL1128323, “Antifungal agents. 9. 3-Aryl-4-[alpha-(1H-imidazol-1-yl)arylmethyl]pyrroles: a new class of potent anti-Candida agents” (1995)
Converted amounts (≈) assume the structure as drawn.

What was measured:
Assay type in all cases: functional
Candida albicans [1] = assay: Inhibitory activity against the Candida albicans (40 clinical isolates), determined at pH-7.2
Candida [2] = assay: Percent resistance against all Candida. species (40 clinical isolates) at 256 micro g/mL (pH=7.2), activity is expressed as R%.
Candida albicans [3] = assay: Inhibitory activity against Candida albicans (40 clinical isolates), determined at pH-7.2
Candida [4] = assay: Inhibitory activity against Candida. species. (40 clinical isolates), determined at pH-5.8
Candida albicans [5] = assay: Inhibitory activity against the Candida albicans (40 clinical isolates), determined at pH-5.8
Candida [6] = assay: Resistance against all Candida. species (40 clinical isolates) at 256 micro g/mL (pH=5.8). Activity is expressed as R%.
Candida [7] = assay: Inhibitory activity against Candida. species (40 clinical isolates), determined at pH-5.8
Candida albicans [8] = assay: Percent resistance against Candida albicans (40 clinical isolates) at 256 micro g/mL (pH=5.8), activity is expressed as R%.
Candida [9] = assay: Inhibitory activity against Candida. species. (40 clinical isolates), determined at pH-7.2
Candida [10] = assay: 50% inhibitory activity against the Candida. species (40 clinical isolates) was determined at pH-7.2
Candida [11] = assay: 90% inhibitory activity against Candida. species (40 clinical isolates) determined at pH-7.2
Candida albicans [12] = assay: 50% inhibitory activity against Candida albicans (40 clinical isolates) determined at pH-7.2; conditions: Candida albicans; read-out: MIC50
Candida albicans [13] = assay: Inhibitory activity against Candida albicans (40 clinical isolates), determined at pH-5.8
Candida albicans [14] = assay: Resistance against Candida. albicans (40 clinical isolates) at 256 ug/mL (pH=7.2), activity is expressed as R%.
Candida albicans [15] = assay: 50% inhibitory activity against Candida albicans (40 clinical isolates) determined at pH-5.8

Row | SMILES | MIC90 (Candida albicans [1]) [µg/mL] | R (Candida [2]) [%] | MIC (Candida albicans [3]) [µg/mL] | MIC (Candida [4]) [µg/mL] | MIC90 (Candida albicans [5]) [µg/mL] | R (Candida [6]) [%] | MIC50 (Candida [7]) [µg/mL] | MIC90 (Candida [7]) [µg/mL] | R (Candida albicans [8]) [%] | MIC (Candida [9]) [µg/mL] | MIC50 (Candida [10]) [µg/mL] | MIC90 (Candida [11]) [µg/mL] | MIC50 (Candida albicans [12]) [µg/mL] | MIC (Candida albicans [13]) [µg/mL] | R (Candida albicans [14]) [%] | MIC50 (Candida albicans [15]) [µg/mL]
1 | Clc1ccc(-c2c[nH]cc2C(c2ccc(-c3ccccc3)cc2)n2ccnc2)cc1 (stereo not given) | 256 (≈ 625 µM) | 60 | > 150 | 28.4 (≈ 69.3 µM) | 256 (≈ 625 µM) | 0 | 32 (≈ 78.1 µM) | 128 (≈ 312 µM) | 0 | > 352 | > 256 | > 256 | 64 (≈ 156 µM) | > 26.5 | 40 | 8 (≈ 19.5 µM)
2 | Fc1ccc(C(c2c[nH]cc2-c2ccc(Cl)cc2Cl)n2ccnc2)cc1 (stereo not given) | 32 (≈ 82.8 µM) | 0 | 10.4 (≈ 26.9 µM) | 21.5 (≈ 55.7 µM) | 32 (≈ 82.8 µM) | 0 | 16 (≈ 41.4 µM) | 32 (≈ 82.8 µM) | 0 | 20.9 (≈ 54.1 µM) | 16 (≈ 41.4 µM) | 32 (≈ 82.8 µM) | 8 (≈ 20.7 µM) | 7.8 (≈ 20.2 µM) | 0 | 2 (≈ 5.18 µM)
3 | Clc1ccc(-c2c[nH]cc2C(c2ccc(Cl)c(Cl)c2)n2ccnc2)cc1 (stereo not given) | 64 (≈ 159 µM) | 10 | 19.3 (≈ 48 µM) | 32.2 (≈ 80 µM) | 64 (≈ 159 µM) | 0 | 32 (≈ 79.5 µM) | 64 (≈ 159 µM) | 0 | 91.3 (≈ 227 µM) | 64 (≈ 159 µM) | 64 (≈ 159 µM) | 2 (≈ 4.97 µM) | 14.4 (≈ 35.8 µM) | 0 | 4 (≈ 9.93 µM)
4 | Clc1ccc(C(c2c[nH]cc2-c2ccc(Cl)c(Cl)c2)n2ccnc2)cc1 (stereo not given) | 16 (≈ 39.7 µM) | 0 | 9.6 (≈ 23.8 µM) | 30.2 (≈ 75 µM) | 16 (≈ 39.7 µM) | 0 | 32 (≈ 79.5 µM) | 64 (≈ 159 µM) | 0 | 39.2 (≈ 97.3 µM) | 32 (≈ 79.5 µM) | 64 (≈ 159 µM) | 4 (≈ 9.93 µM) | 8.9 (≈ 22.1 µM) | 0 | 4 (≈ 9.93 µM)
5 | Clc1ccc(-c2c[nH]cc2C(c2ccc(Cl)cc2)n2ccnc2)cc1 (stereo not given) | 32 (≈ 86.9 µM) | 0 | 16.3 (≈ 44.3 µM) | 20.2 (≈ 54.9 µM) | 32 (≈ 86.9 µM) | 0 | 16 (≈ 43.4 µM) | 32 (≈ 86.9 µM) | 0 | 21.3 (≈ 57.8 µM) | 16 (≈ 43.4 µM) | 32 (≈ 86.9 µM) | 16 (≈ 43.4 µM) | 12.3 (≈ 33.4 µM) | 0 | 8 (≈ 21.7 µM)
